Our source for the Ki and IC50 values is patent EP2150534B1, “ISOQUINOLINONE DERIVATIVES AS NK3 ANTAGONISTS” (H. Lundbeck A/S, priority 2007, dated 2008).

The target in assay [1] is T1, human NK3 receptor (Homo sapiens, UniProt P29371).
T1 construct: expressed in transfected cells; membranes prepared from them
T1 sequence (P29371 1-465): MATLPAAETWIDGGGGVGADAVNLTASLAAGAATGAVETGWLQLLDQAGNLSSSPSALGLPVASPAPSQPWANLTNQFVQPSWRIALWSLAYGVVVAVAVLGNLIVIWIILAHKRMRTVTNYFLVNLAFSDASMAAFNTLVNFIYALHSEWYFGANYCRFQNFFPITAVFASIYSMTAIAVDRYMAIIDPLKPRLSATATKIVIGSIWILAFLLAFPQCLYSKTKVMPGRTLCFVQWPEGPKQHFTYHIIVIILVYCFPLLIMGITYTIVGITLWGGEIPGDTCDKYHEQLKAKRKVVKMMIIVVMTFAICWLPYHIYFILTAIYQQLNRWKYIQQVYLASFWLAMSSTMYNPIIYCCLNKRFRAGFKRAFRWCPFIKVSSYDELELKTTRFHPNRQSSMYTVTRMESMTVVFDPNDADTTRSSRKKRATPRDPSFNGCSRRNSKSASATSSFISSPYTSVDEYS
As to the kind of experiment: NK3 receptor binding assay (SPA-based competition binding with 125I-NKB, membranes of BHK cells). The conditions noted are these: table of Example 10; affinity obtained as described in Example 9; read-out: Affinity Ki. The procedure: Membranepreparation: BHK cells stably expressing the human NK3 receptor were seeded in harvesting plates in Dulbeccos MEM containing GlutaMax (862 mg/l), 1 mM sodium pyruvate, 10% fetal calf serum, 1% Pen/Strep, I mg/ml G418 and were grown at 34 °C in a humidified atmosphere containing 10% CO2. To increase receptor expression, 10 µM trichotatin A was added to the media 24 hours before harvest of the cells at a confluency of app 90%. Prior to the harvesting, the cells were washed twice with PBS without Mg^2+ og Ca^2+ and subsequently scrapped of in 10 ml PBS pr harvesting plate. The cells suspension were centrifuged at 1500xG in three minutes before resuspension in 15 mM Tris-HCl pH 7,5 buffer containing 2 mM MgCl2; 0,3 mM EDTA and 1 mM EGTA (buffer A). The cell suspention was homogenised and subsequently centrifuged at 40000xG in 30 minutes. The membrane-pellet was resuspended in buffer A containing 250 mM sucrose, alliquoted and stored at - 80°C.
Affinity assay description: The assay was performed as a SPA-based competition-binding assay in a 50 mM Tris pH 7.4 assay buffer containing 120 mM NaCl, 3 mM MnCl2, 40 µg/ml bacitracin, 2 µg/ml Chymostatin, 1 µg/ml Phosphoramidon and 4 µg/ml Leupeptin. App 0.02 nM ^125I-NKB was mixed with test compounds before addition of 4 µg of the homogenised NK3 membrane preparation and 0,025 mg SPA beads in a total volume of 60 µl. The assay plate was subsequently under agitation incubated for 90 min at RT. The plate was centrifugated 10 minutes at 500xG and counted in a topcounter 5 minuttes pr well.
The non-specific binding constituted app 5 % of the total binding.
Data points were expressed in percent of the specific binding of ^125I-NKB and the IC50 values (concentration causing 50 percent inhibition of ^125I-NKB specific binding) were determined by non-linear regression analysis using a sigmoidal variable slope curve fitting. The dissociation constant (Ki) were calculated from the Cheng Prusoff equation (Ki = IG50/(1+(L/KD))), where the concentration of free radioligand L is approximated to the concentration of added ^125I-NKB in the assay (app 0,02 nM).
The KD of ^125I-NKB was determined to be 0,7 nM from three independent saturation assays each performed with duplicate determinations. Bmax was app 2 pmol/mg.

Assay [2] has as its target T1, human NK3 receptor. Briefly: NK3 receptor efficacy and potency assay (FLIPR Calcium 4 assay, BHK cells; agonist and antagonist mode versus NKB). In kind it is cell-based. The conditions noted are these: read-out: Potency cIC50. The procedure:
BHK cells stably expressing the human NK3 receptor were seeded in 100 µl media in black walled clear-base 96-wells plates (Costar) aiming at a confluency of 95-100% at the day of assay. The assay was performed according to the FLIPR Calcium 4 Assay kit (Molecular Devices). At the day of the assay, the media was removed and the cells were washed once with the HBSS buffer (Hanks BSS buffer, pH 7,4 containing 20 mM Hepes) before 100 µl of a solution of the calcium assay reagent dissolved in the HBSS buffer containing 2,5 mM probinicid was added to the cells. The plates were incubated for 60 min at 34°C, 10% CO2 before use in the FLIPR for examination of fluorescence.
For efficacy and potency evaluation of compounds, these were diluted in HBSS buffer prior to test. For test of agonist activity, 25 µl of the diluted compound solution was added and the plate was analyzed for 5 minutes in the FLIPR. […] The plates were subsequently analyzed for 5 minutes before the assay was terminated. The maximal increase in fluorescence over background following each ligand addition was determined.

SMILES strings stand for the structures.

As to `CCC(CO)NCc1c(C(=O)N[C@@H](CC)c2ccccc2)c2ccccc2c(=O)n1-c1ccccc1` (stereo partly drawn) [Example 2eg, 3-[(1-Hydroxymethyl-propylamino)-methyl]-1-oxo-2-phenyl-1,2-dihydro-isoquinoline-4-carboxylic acid ((S)-1-phenyl-propyl)-amide], the Ki at human NK3 receptor [1] amounted to 240 nM. Besides, at human NK3 receptor [2], the IC50 came out at 610 nM.
Consider `CC[C@H](NC(=O)c1c(CN2CCCNCC2)n(-c2ccccc2)c(=O)c2c(Cl)cccc12)c1ccccc1` [Example 2kh, 8-Chloro-3-[1,4]diazepan-1-ylmethyl-1-oxo-2-phenyl-1,2-dihydro-isoquinoline-4-carboxylic acid ((S)-1-phenyl-propyl)-amide], for which the Ki at human NK3 receptor [1] is 82 nM. Moreover, on human NK3 receptor [2], the IC50 was 120 nM.
In the same order, the values of `CC[C@H](NC(=O)c1c(CN2CCNC(=O)C2)n(-c2ccccc2)c(=O)c2ccccc12)c1ccccc1` [Example 2df, 1-Oxo-3-(3-oxo-piperazin-1-ylmethyl)-2-phenyl-1,2-dihydro-isoquinoline-4-carboxylic acid ((S)-1-phenyl-propyl)-amide] are 340 nM and 450 nM.
For the compound `O=C(NC(c1cccc(F)c1)C1CC1)c1c(CN2CCN(CCN3CCCC3)CC2)n(-c2ccccc2)c(=O)c2ccccc12` (stereo not shown) [Example 2hv, 1-Oxo-2-phenyl-3-[4-(2-pyrrolidin-1-yl-ethyl)-piperazin-1-ylmethyl]-1,2-dihydro-isoquinolinc-4-carboxylic acid [cyclopropyl-(3-fluoro-phenyl)-methyl]-amide], the Ki on human NK3 receptor [1] was found to be 14 nM. Further, at human NK3 receptor [2], the IC50 was 35 nM.
On the same counts, the results for `CC[C@H](NC(=O)c1c(C)n(-c2ccccc2)c(=O)c2c(Cl)cccc12)c1ccccc1` [Example 1i, 8-Chloro-3-methyl-1-oxo-2-phenyl-1,2-dihydro-isoquinoline-4-carboxylic acid ((S)-1-phenyl-propyl)-amide] are 41 nM and 130 nM.

As a reminder, the Ki is the dissociation constant of the complex between target and ligand, obtained from inhibition or displacement.
